Results reported in ChEMBL document CHEMBL3102800, “Discovery and optimization of N-(3-(1,3-dioxo-2,3-dihydro-1H-pyrrolo[3,4-c]pyridin-4-yloxy)phenyl)benzenesulfonamides as novel GPR119 agonists” (Bioorg Med Chem Lett, 2014).
pEC50: −log10 of the molar value.

Columns and labels:
[1] = biological target: T1, Glucose-dependent insulinotropic receptor (Homo sapiens, UniProt Q8TDV5); test: Agonist activity at human GPR119 expressed in HEK293 cells assessed as cAMP accumulation after 30 mins; assay type: functional, cell-based
T1 sequence (Q8TDV5 whole entry): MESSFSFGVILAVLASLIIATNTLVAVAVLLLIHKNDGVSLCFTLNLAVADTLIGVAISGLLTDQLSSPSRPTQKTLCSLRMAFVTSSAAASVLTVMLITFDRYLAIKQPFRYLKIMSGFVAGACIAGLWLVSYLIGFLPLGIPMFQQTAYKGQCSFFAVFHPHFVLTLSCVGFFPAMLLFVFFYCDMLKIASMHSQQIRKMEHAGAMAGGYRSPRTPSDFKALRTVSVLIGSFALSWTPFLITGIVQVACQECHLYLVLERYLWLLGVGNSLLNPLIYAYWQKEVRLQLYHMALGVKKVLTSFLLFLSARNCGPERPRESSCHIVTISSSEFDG

[2] = biological target: T2, Glucose-dependent insulinotropic receptor (Homo sapiens) (UniProt Q8TDV5); test: Agonist activity at human GPR119 expressed in HEK293 cells assessed as cAMP accumulation after 30 mins relative to isopropyl 4-(1-(4-(methylsulfonyl)phenyl)-1H-pyrazolo[3,4-d]pyrimidin-4-yloxy)piperidine-1-carboxylate; assay type: functional, cell-based
T2 sequence (whole entry): T1 sequence (Q8TDV5 whole entry)

[3] = Clearance in iv dosed rat; assay type: ADME, organism-based; settings: in vivo
[4] = Intrinsic clearance in rat liver microsomes; assay type: ADME; settings: read-out: CLH
[5] = Metabolic stability in rat liver microsomes assessed as compound remaining at 1 uM after 30 mins; assay type: ADME; settings: read-out: Stability
[6] = Metabolic stability in human liver microsomes assessed as compound remaining at 1 uM after 30 mins; assay type: ADME; settings: read-out: Stability
Bile salt export pump = Bile salt export pump (Homo sapiens, UniProt O95342); test: Binding affinity to BSEP (unknown origin)
Sequence of Bile salt export pump (O95342 whole entry): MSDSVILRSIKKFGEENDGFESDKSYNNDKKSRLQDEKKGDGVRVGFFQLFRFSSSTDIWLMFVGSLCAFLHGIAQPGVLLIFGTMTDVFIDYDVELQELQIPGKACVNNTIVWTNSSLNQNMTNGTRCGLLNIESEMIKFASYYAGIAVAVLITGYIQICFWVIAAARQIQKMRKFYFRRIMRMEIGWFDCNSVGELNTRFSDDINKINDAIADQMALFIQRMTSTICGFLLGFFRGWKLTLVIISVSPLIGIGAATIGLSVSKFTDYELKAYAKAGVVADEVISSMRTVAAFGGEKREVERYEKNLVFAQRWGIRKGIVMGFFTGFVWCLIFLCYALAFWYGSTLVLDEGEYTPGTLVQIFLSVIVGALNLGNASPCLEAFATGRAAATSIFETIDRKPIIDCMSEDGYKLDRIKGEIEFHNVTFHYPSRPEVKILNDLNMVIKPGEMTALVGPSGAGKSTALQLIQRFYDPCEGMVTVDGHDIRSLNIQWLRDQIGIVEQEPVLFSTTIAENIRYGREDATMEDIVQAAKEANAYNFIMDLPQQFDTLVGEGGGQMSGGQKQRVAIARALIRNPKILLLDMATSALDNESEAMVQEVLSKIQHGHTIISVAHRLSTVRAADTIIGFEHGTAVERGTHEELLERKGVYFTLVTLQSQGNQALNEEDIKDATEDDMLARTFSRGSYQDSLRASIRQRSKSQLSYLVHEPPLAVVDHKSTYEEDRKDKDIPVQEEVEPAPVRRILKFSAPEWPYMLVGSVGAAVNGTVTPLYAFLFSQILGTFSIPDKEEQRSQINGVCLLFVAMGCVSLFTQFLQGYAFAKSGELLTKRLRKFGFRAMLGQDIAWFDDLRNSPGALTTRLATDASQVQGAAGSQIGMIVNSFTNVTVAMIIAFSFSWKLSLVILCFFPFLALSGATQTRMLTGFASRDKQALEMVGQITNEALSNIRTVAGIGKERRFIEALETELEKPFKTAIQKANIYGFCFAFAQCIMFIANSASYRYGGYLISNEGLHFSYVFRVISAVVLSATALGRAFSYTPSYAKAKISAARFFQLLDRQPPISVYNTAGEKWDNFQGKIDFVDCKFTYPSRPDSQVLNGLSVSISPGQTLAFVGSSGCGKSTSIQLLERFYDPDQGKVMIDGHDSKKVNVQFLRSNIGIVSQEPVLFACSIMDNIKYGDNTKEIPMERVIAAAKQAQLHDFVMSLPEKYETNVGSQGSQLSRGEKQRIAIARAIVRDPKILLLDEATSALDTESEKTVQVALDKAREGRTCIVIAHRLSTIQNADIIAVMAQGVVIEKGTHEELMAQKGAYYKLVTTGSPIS

[7] = Oral bioavailability in cynomolgus monkey at 2 mg/kg; assay type: ADME, organism-based, Macaca fascicularis; settings: in vivo
[8] = Inhibition of Cytochrome P450 (unknown origin); assay type: ADME; settings: human
[9] = biological target: T3, Nuclear receptor subfamily 1 group I member 2 (Homo sapiens, UniProt O75469); test: Activation of human PXR
T3 sequence (O75469 whole entry): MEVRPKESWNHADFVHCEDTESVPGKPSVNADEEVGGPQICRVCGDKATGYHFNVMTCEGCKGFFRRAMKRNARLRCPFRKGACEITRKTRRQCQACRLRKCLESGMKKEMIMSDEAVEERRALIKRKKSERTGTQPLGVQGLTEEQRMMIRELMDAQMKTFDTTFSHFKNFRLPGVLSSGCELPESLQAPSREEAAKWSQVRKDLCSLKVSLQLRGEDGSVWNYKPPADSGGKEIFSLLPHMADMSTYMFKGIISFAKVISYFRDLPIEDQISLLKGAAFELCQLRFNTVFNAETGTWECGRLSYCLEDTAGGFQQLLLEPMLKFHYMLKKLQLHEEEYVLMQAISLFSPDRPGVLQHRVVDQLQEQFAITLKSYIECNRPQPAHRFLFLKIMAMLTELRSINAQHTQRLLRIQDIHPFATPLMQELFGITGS

[10] = Volume of distribution at steady state in rat at 0.5 mg/kg, iv; assay type: ADME, organism-based; parameters: dose 0.5 mg/kg, route intravenous; settings: in vivo, read-out: Vdss
[11] = Plasma protein binding in human; assay type: ADME, cell-free; settings: read-out: PPB
[12] = biological target: T4, G-protein coupled receptor 119 (Macaca fascicularis) (UniProt G7Q3P2); test: Agonist activity at cynomolgus monkey GPR119 assessed as cAMP accumulation relative to control; assay type: functional
T4 sequence (whole entry): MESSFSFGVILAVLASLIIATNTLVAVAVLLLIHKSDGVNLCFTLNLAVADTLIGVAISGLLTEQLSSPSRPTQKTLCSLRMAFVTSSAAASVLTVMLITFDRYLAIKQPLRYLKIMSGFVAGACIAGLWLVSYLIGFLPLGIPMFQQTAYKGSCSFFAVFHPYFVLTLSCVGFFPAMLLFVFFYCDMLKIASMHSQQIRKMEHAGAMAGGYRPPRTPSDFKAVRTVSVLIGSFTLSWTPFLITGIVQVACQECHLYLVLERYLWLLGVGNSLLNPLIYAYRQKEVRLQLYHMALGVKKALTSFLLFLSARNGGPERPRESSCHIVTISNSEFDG

[13] = Clearance in cynomolgus monkey at 0.5 mg/kg, iv; assay type: ADME, organism-based, Macaca fascicularis; parameters: dose 0.5 mg/kg, route intravenous; settings: in vivo
[14] = Intrinsic clearance in human liver microsomes at 1 uM after 30 mins; assay type: ADME; settings: read-out: CLH
[15] = Oral bioavailability in rat at 2 mg/kg; assay type: ADME, organism-based; settings: in vivo
[16] = biological target: T5, G-protein coupled receptor 119 (Macaca fascicularis, UniProt G7Q3P2); test: Agonist activity at cynomolgus monkey GPR119 assessed as cAMP accumulation; assay type: functional
T5 sequence (G7Q3P2 whole entry): T4 sequence (whole entry)

[17] = biological target: T6, Glucose-dependent insulinotropic receptor (Rattus norvegicus, UniProt Q7TQN8); test: Agonist activity at rat GPR119 assessed as cAMP accumulation; assay type: functional
T6 sequence (Q7TQN8 whole entry): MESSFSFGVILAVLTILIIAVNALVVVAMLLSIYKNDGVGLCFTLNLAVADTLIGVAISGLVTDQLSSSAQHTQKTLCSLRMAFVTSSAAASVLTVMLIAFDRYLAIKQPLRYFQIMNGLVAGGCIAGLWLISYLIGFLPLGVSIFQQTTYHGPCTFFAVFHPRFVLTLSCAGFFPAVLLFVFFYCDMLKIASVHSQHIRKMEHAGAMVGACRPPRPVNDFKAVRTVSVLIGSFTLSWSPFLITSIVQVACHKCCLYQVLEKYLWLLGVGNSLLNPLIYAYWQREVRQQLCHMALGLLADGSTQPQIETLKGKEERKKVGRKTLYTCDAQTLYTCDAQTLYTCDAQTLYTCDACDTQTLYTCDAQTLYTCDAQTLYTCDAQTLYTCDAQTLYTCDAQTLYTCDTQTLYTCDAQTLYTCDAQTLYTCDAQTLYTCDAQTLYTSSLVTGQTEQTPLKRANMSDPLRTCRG

[18] = Plasma protein binding in cynomolgus monkey; assay type: ADME, cell-free, Macaca fascicularis; settings: read-out: PPB
[19] = biological target: T7, Glucose-dependent insulinotropic receptor (Mus musculus, UniProt Q7TQP3); test: Agonist activity at mouse GPR119 assessed as cAMP accumulation; assay type: functional
T7 sequence (Q7TQP3 whole entry): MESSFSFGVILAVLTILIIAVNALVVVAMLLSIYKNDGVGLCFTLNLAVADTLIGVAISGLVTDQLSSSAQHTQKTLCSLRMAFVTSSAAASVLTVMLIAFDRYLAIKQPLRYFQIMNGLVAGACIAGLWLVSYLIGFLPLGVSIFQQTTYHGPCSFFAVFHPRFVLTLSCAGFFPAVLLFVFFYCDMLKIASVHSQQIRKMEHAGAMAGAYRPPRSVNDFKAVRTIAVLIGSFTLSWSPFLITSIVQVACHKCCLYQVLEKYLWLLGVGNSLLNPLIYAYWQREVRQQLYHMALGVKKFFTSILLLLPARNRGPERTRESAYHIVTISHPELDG

[20] = Clearance in rat at 0.5 mg/kg, iv; assay type: ADME, organism-based; parameters: dose 0.5 mg/kg, route intravenous; settings: in vivo
[21] = Half life in cynomolgus monkey at 0.5 mg/kg, iv; assay type: ADME, organism-based, Macaca fascicularis; parameters: dose 0.5 mg/kg, route intravenous; settings: in vivo
[22] = Half life in rat at 0.5 mg/kg, iv; assay type: ADME, organism-based; parameters: dose 0.5 mg/kg, route intravenous; settings: in vivo
[23] = Volume of distribution at steady state in cynomolgus monkey at 0.5 mg/kg, iv; assay type: ADME, organism-based, Macaca fascicularis; parameters: dose 0.5 mg/kg, route intravenous; settings: in vivo, read-out: Vdss
[24] = Intrinsic clearance in human liver microsomes; assay type: ADME; settings: read-out: CLH

SMILES | pEC50 [1] | Efficacy [2] | microsomal CLint [4] | also measured
Cc1cc2c(c(Oc3cc(NS(=O)(=O)c4ccc(Cl)cc4)ccc3Cl)n1)C(=O)N(C(C)C)C2=O | 7.48 | – | 29 µL/min/mg | clearance [3]: 3.67 mL/min/kg
Cc1cc2c(c(Oc3cccc(NS(=O)(=O)c4ccc(Cl)cc4)c3)n1)C(=O)N(c1ccccc1)C2=O | 6.52 | 102% | – | –
CCN1C(=O)c2cc(C)nc(Oc3cccc(NS(=O)(=O)c4ccc(Cl)cc4)c3)c2C1=O | 7.96 | 120% | – | –
CC(C)OC(=O)N1CCC(Oc2ncnc3c2cnn3-c2ccc(S(C)(=O)=O)cc2)CC1 | 7.39 | – | – | –
Cc1cc2c(c(Oc3cccc(N(C)S(=O)(=O)c4ccc(Cl)cc4)c3)n1)C(=O)N(C(C)C)C2=O | 7.96 | – | > 400 µL/min/mg | –
Cc1cc2c(c(Oc3cccc(NC(=O)c4ccc(Cl)cc4)c3)n1)C(=O)N(C(C)C)C2=O | < 4.52 | – | 40 µL/min/mg | –
Cc1cc2c(c(Sc3cccc(NS(=O)(=O)c4ccc(Cl)cc4)c3)n1)C(=O)N(C(C)C)C2=O | 7.72 | 76% | – | –
Cc1cc2c(c(Oc3cccc(NS(=O)(=O)c4ccc(Cl)cc4)c3F)n1)C(=O)N(C(C)C)C2=O | 6.31 | – | – | –
Cc1cc2c(c(Oc3cccc(S(=O)(=O)Nc4ccc(Cl)cc4)c3)n1)C(=O)N(C(C)C)C2=O | 6.62 | – | – | –
Cc1cc2c(c(Oc3cccc(NS(=O)(=O)c4ccc(Cl)cc4)c3)n1)C(=O)NC2=O | 6.92 | 109% | – | –
Cc1cc2c(c(Oc3cc(NS(=O)(=O)c4ccc(Cl)cc4)ccc3F)n1)C(=O)N(C(C)C)C2=O | 7.80 | – | 84 µL/min/mg | remaining at 0.5 h, 1 µM [6]: 88%; Activity (Bile salt export pump): Not Active; bioavailability [7]: 29%; inhibition (INH) [8]: Not Active; Activity [9]: Not Active; Vd [10]: 1.5 L/kg; fraction unbound [11]: < 0.01; Efficacy [12]: 102%; clearance [13]: 7.5 mL/min/kg; microsomal CLint at 1 µM [14]: 29 µL/min/mg; bioavailability [15]: 95%; pEC50 [16]: 7.14; pEC50 [17]: 5.69; fraction unbound [18]: < 0.01; pEC50 [19]: 5.72; clearance [20]: 11.8 mL/min/kg; half-life [21]: 5.6 h; half-life [22]: 1.5 h; Vd [23]: 1.1 L/kg

Further molecules by rising pEC50 [1], results first:

pEC50 [1] | Efficacy [2] | microsomal CLint [4] | SMILES | also measured
6.42 | 81% | – | Cc1cc2c(c(Nc3ccc(C)c(NS(=O)(=O)c4ccc(Cl)cc4)c3)n1)C(=O)N(C(C)C)C2=O | –
6.45 | – | – | Cc1cc2c(c(Oc3cc(F)cc(NS(=O)(=O)c4ccc(Cl)cc4)c3)n1)C(=O)N(C(C)C)C2=O | –
6.65 | 85% | – | Cc1cc2c(c(Sc3ccc(C)c(NS(=O)(=O)c4ccc(Cl)cc4)c3)n1)C(=O)N(C(C)C)C2=O | –
7.16 | 95% | – | Cc1cc2c(c(Oc3cccc(NS(=O)(=O)c4ccc(Cl)cc4)c3)n1)C(=O)N(C1CCCC1)C2=O | –
7.35 | 99% | 63 µL/min/mg | O=C1c2cc(C3CC3)nc(Oc3cccc(NS(=O)(=O)c4ccc(Cl)cc4)c3)c2C(=O)N1C1CC1 | microsomal CLint [24]: 27 µL/min/mg
7.64 | 122% | – | Cc1cc2c(c(Oc3cccc(NS(=O)(=O)c4ccc(Cl)cc4)c3)n1)C(=O)N(C)C2=O | –
7.72 | 97% | – | COc1cc2c(c(Oc3cccc(NS(=O)(=O)c4ccc(Cl)cc4)c3)n1)C(=O)N(C1CC1)C2=O | –
7.82 | 111% | – | Cc1cc2c(c(Oc3cccc(NS(=O)(=O)c4ccc(Cl)cc4)c3)n1)C(=O)N(C1CC1)C2=O | –
7.89 | 99% | 250 µL/min/mg | Cc1cc2c(c(Oc3cccc(NS(=O)(=O)c4ccc(Cl)cc4)c3)n1)C(=O)N(C(C)C)C2=O | clearance [3]: 80 mL/min/kg; remaining at 0.5 h, 1 µM [5]: 15%
8.05 | – | 131 µL/min/mg | Cc1cc2c(c(Oc3ccc(C)c(NS(=O)(=O)c4ccc(Cl)cc4)c3)n1)C(=O)N(C(C)C)C2=O | –
